Consider 10 molecules from ChEMBL document CHEMBL1126791, “Synthesis and antibacterial activity of a new series of tetracyclic pyridone carboxylic acids” (J Med Chem, 1993).

≈ marks a conversion by molar mass, not a printed value.

The test system of assay [1] is Enterococcus faecalis. As to the kind of experiment: In vitro minimum inhibitory concentration against E. Faecalis IID682. The assay is classed as functional.
Assay [2] concerns Escherichia coli. Briefly: In vitro minimum inhibitory concentration against Escherichia coli KC-14. The class given is functional.
The subject of assay [3] is Escherichia coli. Briefly: In vitro minimum inhibitory concentration against Escherichia coli NIHJ JC-2. The class given is functional.
In assay [4] the test system is Klebsiella pneumoniae. Briefly: In vitro minimum inhibitory concentration against Klebsiella pneumoniae B54. The assay is classed as functional.
Assay [5] deals with Pseudomonas aeruginosa. As to the kind of experiment: In vitro minimum inhibitory concentration against Pseudomonas aeruginosa IFO 3445. The class given is functional.
Assay [6] relates to Salmonella typhimurium. Briefly: In vitro minimum inhibitory concentration against Salmonella Typhimurium IID 971. The assay is classed as functional, Salmonella enterica subsp. enterica serovar Typhimurium. The conditions noted are these: Salmonella enterica.
The subject of assay [7] is Staphylococcus epidermidis. Briefly: In vitro minimum inhibitory concentration against Staphylococcus epidermidis IAM 1296. The class given is functional.
Assay [8] concerns Staphylococcus aureus. As to the kind of experiment: In vitro minimum inhibitory concentration against Staphylococcus aureus FDA 209P JC-1. The assay is classed as functional.
Assay [9] deals with Staphylococcus aureus. Briefly: In vitro minimum inhibitory concentration against Staphylococcus aureus IID 803. The assay is classed as functional.
Assay [10] relates to Pseudomonas aeruginosa. As to the kind of experiment: In vitro minimum inhibitory concentration against Pseudomonas aeruginosa E-2. The assay is classed as functional.
The test system of assay [11] is Escherichia coli. As to the kind of experiment: In vitro minimum inhibitory concentration against Escherichia coli KL-16. The assay is classed as functional.
Assay [12] relates to Escherichia coli. As to the kind of experiment: Inhibitory effect on DNA gyrase supercoiling activity against Escherichia coli KL-16. The assay is classed as functional.
The subject of assay [13] is Escherichia coli. Briefly: Oral antibacterial activity against Escherichia coli KC-14 in mice. The class given is functional.
Assay [14] relates to Pseudomonas aeruginosa. As to the kind of experiment: Oral antibacterial activity against Pseudomonas aeruginosa E-2 in mice. The assay is classed as functional.
For assay [15], the system named is Staphylococcus aureus. Briefly: Oral antibacterial activity against Staphylococcus aureus IID 803 in mice (95% confidence limits). The assay is classed as functional.

As usually defined, the MIC is the least concentration at which growth counts as inhibited. In the case of `CC1COc2c(N3CCN(C)CC3)c(F)cc3c(=O)c(C(=O)O)cn1c23` (centres undefined) [OFLOXACIN], the MIC in assay [1] was 1.56 mg/L (≈ 4.32 µM); in assay [2], 0.1 mg/L (≈ 0.277 µM); in assay [3], 0.1 mg/L (≈ 0.277 µM); in assay [4], 0.1 mg/L (≈ 0.277 µM); in assay [5] it was 1.56 mg/L (≈ 4.32 µM); in assay [6], 0.05 mg/L (≈ 0.138 µM). Further, the MIC in [7] was determined as 0.78 mg/L (≈ 2.16 µM); in [8], 0.39 mg/L (≈ 1.08 µM); in assay [9], 0.39 mg/L (≈ 1.08 µM); in assay [10], 1.56 mg/L (≈ 4.32 µM).
A word on the IC50: it is the point on the concentration scale where inhibition reaches its midpoint. Regarding `CN1CCN(c2c(F)cc3c(=O)c(C(=O)O)c4scc5n4c3c2N(Cc2ccccc2)C5)CC1.Cl`, the MIC in assay [1] is 25 mg/L; in assay [2], 12.5 mg/L; in assay [11] it was 25 mg/L; in assay [3] it was 25 mg/L; in assay [4], 50 mg/L; in assay [5], 100 mg/L. For the same molecule, the MIC in assay [6] turned out to be 50 mg/L; in assay [7], 12.5 mg/L; in assay [8], 6.25 mg/L; in assay [9] it was 3.13 mg/L; in assay [10] it was 100 mg/L. The IC50 in assay [12] is above 10 mg/L.
Take `CN1CCN(c2c(F)cc3c(=O)c(C(=O)O)c4scc5n4c3c2SC5)CC1`: the minimal inhibitory concentration (MIC) in [1] was 0.78 mg/L (≈ 1.92 µM); in assay [2] it was 0.2 mg/L (≈ 0.493 µM); in assay [11], 0.2 mg/L (≈ 0.493 µM); in assay [3], 0.2 mg/L (≈ 0.493 µM); in assay [4] it was 0.2 mg/L (≈ 0.493 µM); in assay [5] it was 3.13 mg/L (≈ 7.72 µM). Also, the MIC in assay [6] worked out at 0.1 mg/L (≈ 0.247 µM); in [7] it was 0.39 mg/L (≈ 0.962 µM); in [8], 0.2 mg/L (≈ 0.493 µM); in [9], 0.2 mg/L (≈ 0.493 µM); in [10], 3.13 mg/L (≈ 7.72 µM). In [12], this molecule came in with a concentration for half-maximal inhibition (IC50) of 0.24 mg/L (≈ 0.592 µM).
Broadly, the ED50 is the dose at which the effect has come halfway, by size or by number of responders. The low end stands for greater potency, the high end for weaker potency. In the case of `CN1CCN(c2c(F)cc3c(=O)c(C(=O)O)c4scc5n4c3c2OC5)CC1`, the MIC in assay [1] was determined as 0.39 mg/L (≈ 1 µM); in assay [2], 0.1 mg/L (≈ 0.257 µM); in assay [11], 0.05 mg/L (≈ 0.128 µM); in [3] it was 0.1 mg/L (≈ 0.257 µM); in [4], 0.1 mg/L (≈ 0.257 µM); in assay [5] it was 0.78 mg/L (≈ 2 µM). Moreover, the MIC turned out to be 0.05 mg/L (≈ 0.128 µM) in assay [6]; 0.2 mg/L (≈ 0.514 µM) in assay [7]; 0.1 mg/L (≈ 0.257 µM) in assay [8]; 0.1 mg/L (≈ 0.257 µM) in [9]; 0.78 mg/L (≈ 2 µM) in assay [10]. The IC50 in assay [12] turned out to be 0.14 mg/L (≈ 0.36 µM). In addition, the ED50 in [13] is 1.4 mg/kg; in assay [14], 11.7 mg/kg; in assay [15], 12.3 mg/kg.
On to `CN1CCN(c2c(F)cc3c(=O)c(C(=O)O)c4scc5n4c3c2N(c2ccccc2)C5)CC1.Cl`, for which the MIC in assay [1] came out at 25 mg/L; in [2], 3.13 mg/L; in assay [11], 3.13 mg/L; in [3] it was 3.13 mg/L; in assay [4], 3.13 mg/L; in assay [5] it was 100 mg/L. The MIC in [6] was 3.13 mg/L; in assay [7], 1.56 mg/L; in assay [8] it was 1.56 mg/L; in assay [9], 0.78 mg/L; in assay [10], 100 mg/L. This molecule also gave an IC50 in assay [12] of 1.76 mg/L.
For the molecule `CN1CCN(c2c(F)cc3c(=O)c(C(=O)O)c4scc5n4c3c2C(=O)C5)CC1.Cl`, the minimal inhibitory concentration (MIC) in assay [1] was determined as 50 mg/L; in [2], 12.5 mg/L; in assay [11], 12.5 mg/L; in assay [3] it was 12.5 mg/L; in [4], 25 mg/L; in [5], 100 mg/L. Besides, the MIC in assay [6] turned out to be 12.5 mg/L; in assay [7], 12.5 mg/L; in assay [8], 6.25 mg/L; in assay [9], 6.25 mg/L; in assay [10], 100 mg/L. For the same molecule, the IC50 in assay [12] was above 10 mg/L.
On to `CN1CCN(c2c(F)cc3c(=O)c(C(=O)O)c4scc5n4c3c2N(C2CC2)C5)CC1`, for which the MIC in [1] was 0.78 mg/L (≈ 1.82 µM); in assay [2], 0.1 mg/L (≈ 0.233 µM); in [11] it was 0.2 mg/L (≈ 0.467 µM); in assay [3] it was 0.2 mg/L (≈ 0.467 µM); in [4], 0.2 mg/L (≈ 0.467 µM); in assay [5] it was 1.56 mg/L (≈ 3.64 µM). The minimum inhibitory concentration (MIC) in assay [6] amounted to 0.39 mg/L (≈ 0.91 µM); in assay [7], 0.39 mg/L (≈ 0.91 µM); in [8] it was 0.2 mg/L (≈ 0.467 µM); in [9], 0.2 mg/L (≈ 0.467 µM); in assay [10], 3.13 mg/L (≈ 7.3 µM). Besides, half-maximal inhibition in [12] (IC50) required 0.34 mg/L (≈ 0.793 µM).
Take `CCN1Cc2csc3c(C(=O)O)c(=O)c4cc(F)c(N5CCN(C)CC5)c1c4n23`: the MIC came to 0.78 mg/L (≈ 1.87 µM) in [1]; 0.2 mg/L (≈ 0.48 µM) in assay [2]; 0.2 mg/L (≈ 0.48 µM) in assay [11]; 0.39 mg/L (≈ 0.936 µM) in [3]; 0.2 mg/L (≈ 0.48 µM) in [4]; 3.13 mg/L (≈ 7.52 µM) in assay [5]. The MIC in [6] stood at 0.2 mg/L (≈ 0.48 µM); in [7], 0.2 mg/L (≈ 0.48 µM); in assay [8], 0.2 mg/L (≈ 0.48 µM); in assay [9] it was 0.2 mg/L (≈ 0.48 µM); in [10], 3.13 mg/L (≈ 7.52 µM). For the same molecule, 0.25 mg/L (≈ 0.6 µM) corresponded to half-maximal inhibition in assay [12] (IC50).
As to `C=CCN1Cc2csc3c(C(=O)O)c(=O)c4cc(F)c(N5CCN(C)CC5)c1c4n23.Cl`, the MIC in assay [1] came out at 3.13 mg/L; in assay [2] it was 0.39 mg/L; in [11], 0.78 mg/L; in assay [3], 0.78 mg/L; in [4] it was 12.5 mg/L; in assay [5], 1.56 mg/L. In addition, the MIC in assay [6] was 0.78 mg/L; in assay [7], 0.78 mg/L; in [8] it was 0.39 mg/L; in assay [9], 0.39 mg/L; in [10] it was 6.25 mg/L. This molecule registered an IC50 in [12] of 0.45 mg/L.
For the molecule `CN1CCN(c2c(F)cc3c(=O)c(C(=O)O)c4scc5n4c3c2N(C)C5)CC1`, the minimum inhibitory concentration (MIC) in assay [1] came to 0.1 mg/L (≈ 0.248 µM); in assay [2], 0.05 mg/L (≈ 0.124 µM); in assay [11], 0.05 mg/L (≈ 0.124 µM); in assay [3], 0.05 mg/L (≈ 0.124 µM); in assay [4], 0.05 mg/L (≈ 0.124 µM); in assay [5] it was 0.39 mg/L (≈ 0.969 µM). Moreover, the MIC in [6] came to 0.05 mg/L (≈ 0.124 µM); in assay [7], 0.05 mg/L (≈ 0.124 µM); in assay [8] it was 0.05 mg/L (≈ 0.124 µM); in assay [9] it was 0.05 mg/L (≈ 0.124 µM); in [10] it was 0.78 mg/L (≈ 1.94 µM). Further, half-maximal inhibition in [12] (IC50) required 0.16 mg/L (≈ 0.398 µM). Also, the values for the ED50 in [13], in assay [14] and in [15] were 0.9 mg/kg, 10.2 mg/kg and 2.8 mg/kg, respectively.
